This is an account of results in patent US3993771A (priority 1974, dated 1976).

In series [1] the test system is Pyricularia oryzae. The series is classed as in vivo. Conditions: preventive.
Series [2] concerns Pyricularia oryzae. The series is classed as in vivo.
The test system of series [3] is Pyricularia oryzae. As to the kind of experiment: microbe, parasite or virus in culture. The series is classed as cell-based. Conditions: for Diameter of mycelium / Diameter of mycelium (symbol): 27° C., 2 weeks; for Diameter of mycelium: untreated 63.5 m/m; for MIC: Pyricularia oryzae, 336 h, read-out: MIC (minimum inhibitory concentration on mycelial growth).
The subject of series [4] is rice plants (var.: Kinki No. 33). Conditions: preventive test.
Series [5] shares this test system.
[6] abbreviates: concentration of active ingredient 500 ppm.
The mark [7] stands for this setting: curative, concentration of active ingredient 500 ppm.
The mark [8] stands for this setting: concentration of active ingredient 100 ppm.
Setting [9] is: curative, concentration of active ingredient 200 ppm.

SMILES strings stand for the structures. In brackets after ≈: the same amount, converted by molar mass. Where two headings read alike, the source gives them in different places.

`COc1ccccc1C=C1CCOC1=O` [Control (iv), reference compound]: the values for the Disease control in the series on Pyricularia oryzae [1] (setting [6]) and in the series on Pyricularia oryzae [2] (setting [7]) were 2% and 0%, respectively. Moreover, the Disease severity stood at 97.5% in the series on Pyricularia oryzae [1] (setting [6]) and 100.0% with Pyricularia oryzae [2] (setting [7]). Moreover, the Diameter of mycelium in the series with Pyricularia oryzae [3] (2 ppm) is recorded as 63.0 m/m; with Pyricularia oryzae [3] (10 ppm) it was 48.5 m/m; in the series with Pyricularia oryzae [3] (50 ppm), 31.5 m/m. In addition, in the series with Pyricularia oryzae [3] (250 ppm), the “Diameter of mycelium (symbol)” value is listed as “±”. Further, the MIC in the series on Pyricularia oryzae [3] was approximately 250 µg/mL (≈ 1220 µM). Also, the Phytotoxicity result in series [4] (500 ppm) was “no”; in series [5] (curative test, 500 ppm) it was “no”.

In the series with Pyricularia oryzae [2] (in vivo), `CCOP(=O)(Sc1ccccc1)Sc1ccccc1` [Commercial fungicide C, O-ethyl-S,S-diphenyl-phosphorodithiolate, reference compound] yielded a Disease control of 92% and a Disease severity of 7.5%. In addition, the Phytotoxicity entry in series [5] (in vivo) was “no”.

For the compound `Cc1ccccc1C=C1CCOC1=O` [Compound 1], the Disease control in the series with Pyricularia oryzae [1] (setting [8]) turned out to be 100%; with Pyricularia oryzae [2] (setting [9]), 99%. In addition, the figures for the Disease severity with Pyricularia oryzae [1] (setting [8]) and with Pyricularia oryzae [2] (setting [9]) were 0% and 1.3%, respectively. The Diameter of mycelium in the series on Pyricularia oryzae [3] (2 ppm), in the series with Pyricularia oryzae [3] (10 ppm), in the series on Pyricularia oryzae [3] (50 ppm) and in the series on Pyricularia oryzae [3] (250 ppm) was 0 m/m each time. Besides, the MIC in the series on Pyricularia oryzae [3] is less than 2 µg/mL. In addition, the Phytotoxicity entry was “no” in series [4] (100 ppm) and “no” in series [5] (curative test, 200 ppm).

Regarding `CCc1ccccc1C=C1CC(C)OC1=O` (centres unmarked) [Compound 14], the Disease control in the series on Pyricularia oryzae [1] (setting [8]) and with Pyricularia oryzae [2] (setting [9]) was 100% each time. The Disease severity with Pyricularia oryzae [1] (setting [8]) and in the series with Pyricularia oryzae [2] (setting [9]) was 0% each time. Moreover, the “Diameter of mycelium (symbol)” value with Pyricularia oryzae [3] (2 ppm) is on record as “±”. Further, the Diameter of mycelium with Pyricularia oryzae [3] (10 ppm), with Pyricularia oryzae [3] (50 ppm) and in the series with Pyricularia oryzae [3] (250 ppm) was 0 m/m each time. For the same compound, the MIC with Pyricularia oryzae [3] is approximately 2 µg/mL (≈ 9.25 µM). Also, the Phytotoxicity entry in series [4] (100 ppm) was “no”.
